Test results: patent publication US20220273716A1, “POPULATIONS OF NATURAL KILLER CELLS COMPRISING A CD38 CHIMERIC ANTIGEN RECEPTOR” (Celularity Inc., priority 2019, published 2022)
Entries after “also recorded” stand apart in the source; their conditions may differ. Read-outs that look alike come from different tables or passages of the source.

Columns and labels:
CD34+ cells [1] = experiment: NK cell expansion from CD34+ cells in three-stage culture with compound; format: cell-based, human; settings: for cell expansion compared to SR1 / support of NK expansion (and differentiation): compound 10 μM during first 14 days, Day 35; for cell expansion compared to SR1: SR1 10 μM positive control; for expansion, differentiation and cytotoxicity profile versus SR1: PNK-007 culture
Text: (§1) UCB CD34+ cells were cultivated in presence of cytokines including thrombopoietin, SCF, Flt3 ligand, IL-7, IL-15 and IL-2 for 35 days to produce three-stage NK cells, as described in Example 1. Multi-color flow cytometry was used to determine the phenotypic characteristics of three-stage NK cells.
(§2) For biological testing, the compounds were provided to culture to evaluate their effects on NK cell expansion and differentiation. Specifically, donors of CD34+ cells (StemCell Technology) were thawed and expanded in vitro following NK culture protocol. During the first 14 days of the culture, each CRL compounds was dissolved in DMSO and added to the culture at 10 μM concentration. SR1 (at 10 μM) served as a positive control compound, while DMSO alone without any compound served as a negative control. At the end of the culture on Day 35, cell expansion, natural killer (NK) cell differentiation and cytotoxicity of the cells against K562 tumor cell line were characterized. Due to the large number of the compounds, the testing was performed in two experiments, CRL1-11 and CRL 12-22. The same donors were used for each experiment. Positive and negative controls were also included in both experiments.

K562 tumor cells = experiment: Cytotoxicity assay of compound cultured cells against K562 tumor cells; format: cell-based; settings: 10:1 E:T ratio, both donors
Description: as §2
Cytotoxicity assay was run using compound cultured cells against K562 tumor cells at 10:1 effector to target ratio (FIG. 5) to evaluate cell functions.

CD34+ cells [2] = experiment: NK cell differentiation of compound cultured cells (flow cytometry); format: cell-based, human; settings: compared to SR1
Text: as §1, §2

CD34 cells = experiment: CD34 cell expansion at Day 14 of the culture; format: cell-based, human; settings: compound 10 μM
Description: as §2

multiple myeloma = settings: cited from earlier work

Row | Structure (SMILES) | cell expansion compared to SR1 (CD34+ cells [1]) | killing activity compared to cells cultured with SR1 (K562 tumor cells) | CD56+/CD11a+ subpopulation (CD34+ cells [2]) | expansion, differentiation and cytotoxicity profile versus SR1 (CD34+ cells [1]) | support of NK expansion (and differentiation) (CD34+ cells [1]) | CD34 cell expansion (CD34 cells) | other results
1 | CC(C)c1csc2c(NCCc3c[nH]c4ccccc34)nc(-c3cncc(C#N)c3)nc12 [CRL17, 5-(4-((2-(1H-indol-3-yl)ethyl)amino)-7-isopropylthieno[3,2-d]pyrimidin-2-yl)nicotinonitrile] | slightly less expansion compared to SR1 | increased killing activities | increased CD56+/CD11a+ subpopulation |  |  |  | 
2 | Cc1cncc(-c2nc(NCCc3c[nH]c4ccccc34)c3occc3n2)c1 [CRL20, N-(2-(1H-indol-3-yl)ethyl)-2-(5-methylpyridin-3-yl)furo[3,2-d]pyrimidin-4-amine] |  |  |  | very similar expansion, differentiation and cytotoxicity profiles as SR1 | supported cell expansion the best | achieved the highest CD34 cell expansion | 
3 | CCC(C)Nc1nc(NCCc2c[nH]c3ccccc23)c2ccccc2n1 (stereo not drawn) [CRL13, N^4-(2-(1H-indol-3-yl)ethyl)-N^2-(sec-butyl)quinazoline-2,4-diamine] |  |  |  |  | Except for CRL7 and CRL13, the rest of the compounds all resulted in a NK expansion; also recorded: all the compounds except CRL7 and CRL13 supported PNK-007 expansion and differentiation |  | 
4 | CCC(C)Nc1cc(-c2cncc(C#N)c2)nc(NCCc2c[nH]c3ccccc23)n1 (stereo not drawn) [CRL7, 5-(2-((2-(1H-indol-3-yl)ethyl)amino)-6-(sec-butylamino)pyrimidin-4-yl)nicotinonitrile] |  |  |  |  | Except for CRL7 and CRL13, the rest of the compounds all resulted in a NK expansion; also recorded: all the compounds except CRL7 and CRL13 supported PNK-007 expansion and differentiation |  | 
5 | Cc1cncc(-c2nc(NCCc3c[nH]c4ccccc34)c3scc(C(C)C)c3n2)c1 [CRL21, N-(2-(1H-indol-3-yl)ethyl)-7-isopropyl-2-(5-methylpyridin-3-yl)thieno[3,2-d]pyrimidin-4-amine] | slightly less expansion compared to SR1 | increased killing activities | increased CD56+/CD11a+ subpopulation |  |  |  | 
6 | Fc1cncc(-c2nc(NCCc3c[nH]c4ccccc34)c3occc3n2)c1 [CRL19, N-(2-(1H-indol-3-yl)ethyl)-2-(5-fluoropyridin-3-yl)furo[3,2-d]pyrimidin-4-amine] |  |  |  | very similar expansion, differentiation and cytotoxicity profiles as SR1 | supported cell expansion the best | achieved the highest CD34 cell expansion | 
7 | CC(C)c1csc2c(NCCc3c[nH]c4ccccc34)nc(-c3cncc(F)c3)nc12 [CRL18, N-(2-(1H-indol-3-yl)ethyl)-2-(5-fluoropyridin-3-yl)-7-isopropylthieno[3,2-d]pyrimidin-4-amine] | slightly less expansion compared to SR1 | increased killing activities | increased CD56+/CD11a+ subpopulation |  |  |  | 
8 | N#Cc1cncc(-c2nc(NCCc3c[nH]c4ccccc34)c3occc3n2)c1 [CRL22, 5-(4-((2-(1H-indol-3-yl)ethyl)amino)furo[3,2-d]pyrimidin-2-yl)nicotinonitrile] |  |  |  | very similar expansion, differentiation and cytotoxicity profiles as SR1 | supported cell expansion the best | achieved the highest CD34 cell expansion | 
9 | Nc1cccc2c1CN(C1CCC(=O)NC1=O)C2=O (stereo not drawn) [lenalidomide, 3-(4′aminoisoindoline-1′-one)-1-piperidine-2,6-dione] |  |  |  |  |  |  | ORR (VGPR or better) (multiple myeloma; 1 year post ASCT): 48%; ORR (VGPR or better) (multiple myeloma; 2 year post ASCT): 36%; hazard ratio (TTP, vs placebo) (multiple myeloma; 95% CI 0.46-0.71): 0.57; median TTP (multiple myeloma; not accounting for crossover): 57.3 months
